26 compounds from patent publication US10239873B2, “7-azaindole or 4,7-diazaindole derivatives as IKKϵ epsilon and TBK1 inhibitor and pharmaceutical composition comprising same” (GREEN CROSS CORPORATION, priority 2015, dated 2019) can be followed below.

Molecules are shown by their SMILES. Bounds are passed on as bounds.

For this assay, the target named is T1, TBK1 (Homo sapiens, UniProt Q9UHD2).
T1 construct: purchased Promega (Invitrogen is also named in the same bracket) V4158; PR8031B; V3991 (not assigned to the two kinases)
T1 sequence (Q9UHD2 1-729): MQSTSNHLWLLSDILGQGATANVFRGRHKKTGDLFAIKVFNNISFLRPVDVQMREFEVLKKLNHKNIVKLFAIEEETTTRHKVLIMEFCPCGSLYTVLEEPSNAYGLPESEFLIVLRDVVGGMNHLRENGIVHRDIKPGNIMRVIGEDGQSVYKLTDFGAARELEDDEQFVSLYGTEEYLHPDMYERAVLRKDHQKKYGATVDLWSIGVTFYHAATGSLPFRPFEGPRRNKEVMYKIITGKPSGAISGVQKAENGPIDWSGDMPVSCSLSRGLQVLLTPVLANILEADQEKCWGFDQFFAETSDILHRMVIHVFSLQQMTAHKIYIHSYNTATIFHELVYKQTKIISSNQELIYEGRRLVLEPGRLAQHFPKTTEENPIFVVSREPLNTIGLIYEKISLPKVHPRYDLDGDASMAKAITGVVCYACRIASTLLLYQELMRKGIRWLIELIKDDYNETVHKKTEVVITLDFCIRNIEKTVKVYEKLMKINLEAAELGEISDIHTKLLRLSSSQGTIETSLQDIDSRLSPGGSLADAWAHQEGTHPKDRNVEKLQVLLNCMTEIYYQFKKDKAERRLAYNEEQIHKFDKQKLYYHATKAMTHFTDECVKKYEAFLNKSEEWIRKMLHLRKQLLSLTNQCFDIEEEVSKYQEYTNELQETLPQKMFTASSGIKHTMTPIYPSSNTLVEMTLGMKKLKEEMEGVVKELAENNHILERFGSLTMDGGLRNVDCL
Nature of the assay: ADP-Glo Kinase Assay, inhibition activity on TBK1. The assay is classed as biochemical. Put shortly:
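Kinase activity measured with the ADP-Glo luminescent ADP-detection kit per manufacturer's protocol, using IKKε or TBK1 kinase enzyme systems. Reaction buffer: 40 mM Tris (pH 7.5), 20 mM MgCl2, 0.1 mg/mL BSA; luminescence read on a luminometer.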
Background: ADP-Glo first removes unused ATP, then detects ADP through luciferase.
On to `COc1ccc(-c2cnc3[nH]cc(C4=CCN(C(=O)c5cccs5)CC4)c3c2)cc1OC` [Example 191, (4-(5-(3,4-Dimethoxyphenyl)-1H-pyrrolo[2,3-b]pyridin-3-yl)-5,6-dihydropyridin-1(2H)-yl)(thiophen-2-yl)methanone], for which the IC50 (usually the concentration needed to halve the response being measured) stood at 110 nM.

`COc1ccc(-c2cnc3[nH]cc(C4=CCN(C(=O)c5cccs5)CC4)c3c2)cc1F` [Example 192, (4-(5-(3-Fluoro-4-methoxyphenyl)-1H-pyrrolo[2,3-b]pyridin-3-yl)-5,6-dihydropyridin-1(2H)-yl)(thiophen-2-yl)methanone] returned a 50% inhibitory concentration (IC50) of 460 nM. Compared with the last compound, the IC50 is about 4.2-fold higher.

For the compound `CS(=O)(=O)c1cccc(-c2cnc3[nH]cc(C4=CCN(C(=O)c5cccs5)CC4)c3c2)c1` [Example 193, (4-(5-(3-(Methylsulfonyl)phenyl)-1H-pyrrolo[2,3-b]pyridin-3-yl)-5,6-dihydropyridin-1(2H)-yl)(thiophen-2-yl)methanone], the IC50 is 36 nM.

For the compound `CS(=O)(=O)c1ccc(-c2cnc3[nH]cc(C4=CCN(C(=O)c5cccs5)CC4)c3c2)cc1` [Example 194, (4-(5-(4-(methylsulfonyl)phenyl)-1H-pyrrolo[2,3-b]pyridin-3-yl)-5,6-dihydropyridin-1(2H)-yl)(thiophen-2-yl)methanone], the half-inhibitory concentration (IC50) is > 10000 nM.

Regarding `CCS(=O)(=O)c1cccc(-c2cnc3[nH]cc(C4=CCN(C(=O)c5cccs5)CC4)c3c2)c1` [Example 195, (4-(5-(3-(ethylsulfonyl)phenyl)-1H-pyrrolo[2,3-b]pyridin-3-yl)-5,6-dihydropyridin-1(2H)-yl)(thiophen-2-yl)methanone], the IC50 was 61 nM.

`O=C(c1cccs1)N1CC=C(c2c[nH]c3ncc(-c4ccc(S(=O)(=O)C5CC5)cc4)cc23)CC1` [Example 196, (4-(5-(4-(cyclopropylsulfonyl)phenyl)-1H-pyrrolo[2,3-b]pyridin-3-yl)-5,6-dihydropyridin-1(2H)-yl)(thiophen-2-yl)methanone] gave a 50% inhibitory concentration (IC50) of 250 nM. This IC50 lies about 4.1-fold higher than the previous one.

As for `NS(=O)(=O)c1ccc(-c2cnc3[nH]cc(C4=CCN(C(=O)c5cccs5)CC4)c3c2)cc1` [Example 197, 4-(3-(1-(thiophene-2-carbonyl)-1,2,3,6-tetrahydropyridin-4-yl)-1H-pyrrolo[2,3-b]pyridin-5-yl)benzensulfonamide], half-maximal inhibition (IC50) was put at 28 nM. This IC50 is about 8.9-fold lower than that of the compound before.

`NS(=O)(=O)c1cccc(-c2cnc3[nH]cc(C4=CCN(C(=O)c5cccs5)CC4)c3c2)c1` [Example 198, 3-(3-(1-(thiophene-2-carbonyl)-1,2,3,6-tetrahydropyridin-4-yl)-1H-pyrrolo[2,3-b]pyridin-5-yl)benzensulfonamide] yielded an IC50 of 15 nM.

Regarding `CNS(=O)(=O)c1cccc(-c2cnc3[nH]cc(C4=CCN(C(=O)c5cccs5)CC4)c3c2)c1` [Example 199, N-methyl-3-(3-(1-(thiophene-2-carbonyl)-1,2,3,6-tetrahydropyridin-4-yl)-1H-pyrrolo[2,3-b]pyridin-5-yl)benzensulfonamide], the half-inhibitory concentration (IC50) was 34 nM.

Consider `CNS(=O)(=O)c1ccc(-c2cnc3[nH]cc(C4=CCN(C(=O)c5cccs5)CC4)c3c2)cc1` [Example 200, N-methyl-4-(3-(1-(thiophene-2-carbonyl)-1,2,3,6-tetrahydropyridin-4-yl)-1H-pyrrolo[2,3-b]pyridin-5-yl)benzensulfonamide], for which the IC50 came out at 45 nM.

`CS(=O)(=O)Nc1cccc(-c2cnc3[nH]cc(C4=CCN(C(=O)c5cccs5)CC4)c3c2)c1` [Example 201, N-(3-(3-(1-(thiophene-2-carbonyl)-1,2,3,6-tetrahydropyridin-4-yl)-1H-pyrrolo[2,3-b]pyridin-5-yl)phenyl)methansulfonamide]: the half-inhibitory concentration (IC50) is > 10000 nM.

In the case of `O=C(c1cccs1)N1CC=C(c2c[nH]c3ncc(-c4cccc(S(=O)(=O)N5CCOCC5)c4)cc23)CC1` [Example 202, (4-(5-(3-(morpholinosulfonyl)phenyl)-1H-pyrrolo[2,3-b]pyridin-3-yl)-5,6-dihydropyridin-1(2H)-yl)(thiophen-2-yl)methanone], 230 nM corresponded to half-maximal inhibition (IC50). This counts as sub-micromolar.

In turn, `COc1ccc(-c2cnc3[nH]cc(C4=CCN(C(=O)c5cccs5)CC4)c3c2)cc1S(=O)(=O)N1CCOCC1` [Example 203, (4-(5-(4-methoxy-3-(morpholinosulfonyl)phenyl)-1H-pyrrolo[2,3-b]pyridin-3-yl)-5,6-di hydropyridin-1(2H)-yl)(thiophen-2-yl)methanone] gave a half-inhibitory concentration (IC50) of 39 nM.

Consider `O=C(c1cccs1)N1CC=C(c2c[nH]c3ncc(-c4ccc(CN5CCOCC5)s4)cc23)CC1` [Example 206, (4-(5-(5-(morpholinomethyl)thiophen-2-yl)-1H-pyrrolo[2,3-b]pyridin-3-yl)-5,6-dihydropyridin-1(2H)-yl)(thiophen-2-yl)methanone], for which half-maximal inhibition (IC50) was put at 49 nM.

Regarding `O=C(c1cccs1)N1CC=C(c2c[nH]c3ncc(-c4csc(CN5CCOCC5)c4)cc23)CC1` [Example 207, (4-(5-(5-(morpholinomethyl)thiophen-3-yl)-1H-pyrrolo[2,3-b]pyridin-3-yl)-5,6-dihydropyridin-1(2H)-yl)(thiophen-2-yl)methanone], the IC50 worked out at 48 nM. The IC50 values of the last two compounds are within 1.5-fold of each other.

As to `O=C(c1cccc(-c2cnc3[nH]cc(C4=CCN(C(=O)c5cccs5)CC4)c3c2)c1)N1CCOCC1` [Example 208, (4-(5-(3-(morpholine-4-carbonyl)phenyl)-1H-pyrrolo[2,3-b]pyridin-3-yl)-5,6-dihydropyridin-1(2H)-yl)(thiophen-2-yl)methanone], the 50% inhibitory concentration (IC50) amounted to 190 nM.

In turn, `COc1ccc(-c2cnc3[nH]cc(C4=CCN(C(=O)c5ccc(C)s5)CC4)c3c2)cc1OC` [Example 210, (4-(5-(3,4-dimethoxyphenyl)-1H-pyrrolo[2,3-b]pyridin-3-yl)-5,6-dihydropyridin-1(2H)-yl)(5-methylthiophen-2-yl)methanone] registered an IC50 of 3000 nM. This IC50 lies about 16-fold higher than the previous one.

As to `Cc1ccc(C(=O)N2CC=C(c3c[nH]c4ncc(-c5ccc(S(C)(=O)=O)cc5)cc34)CC2)s1` [Example 211, (4-(5-(4-(methylsulfonyl)phenyl)-1H-pyrrolo[2,3-b]pyridin-3-yl)-5,6-dihydropyridin-1(2H)-yl)(5-methylthiophen-2-yl)methanone], the IC50 was determined as 3500 nM.

In turn, `Cc1ccc(C(=O)N2CC=C(c3c[nH]c4ncc(-c5ccc(S(N)(=O)=O)cc5)cc34)CC2)s1` [Example 212, 4-(3-(1-(5-methylthiophene-2-carbonyl)-1,2,3,6-tetrahydropyridin-4-yl)-1H-pyrrolo[2,3-b]pyridin-5-yl)benzensulfonamide] gave an IC50 of 2600 nM.

For the compound `COc1ccc(-c2cnc3[nH]cc(C4=CCN(C(=O)c5cccs5)CC4C)c3c2)cc1OC` (centres unmarked) [Example 213, (4-(5-(3,4-dimethoxyphenyl)-1H-pyrrolo[2,3-b]pyridin-3-yl)-5-methyl-5,6-dihydropyridin-1(2H)-yl)(thiophen-2-yl)methanone], it took 180 nM to reach half-maximal inhibition (IC50). Compared with the last compound, the IC50 is about 14-fold lower.

The compound `CC1CN(C(=O)c2cccs2)CC=C1c1c[nH]c2ncc(-c3ccc(S(C)(=O)=O)cc3)cc12` (centres unmarked) [Example 214, (5-methyl-4-(5-(4-(methylsulfonyl)phenyl)-1H-pyrrolo[2,3-b]pyridin-3-yl)-5,6-dihydropyridin-1(2H)-yl)(thiophen-2-yl)methanone] returned a 50% inhibitory concentration (IC50) of 78 nM. This IC50 is about 2.3-fold lower than that of the compound before.

Compound `CC1CN(C(=O)c2cccs2)CC=C1c1c[nH]c2ncc(-c3ccc(C(=O)N4CCOCC4)cc3)cc12` (centres unmarked) [Example 215, (4-(3-(3-methyl-1-(thiophene-2-carbonyl)-1,2,3,6-tetrahydropyridin-4-yl)-1H-pyrrolo[2,3-b]pyridin-5-yl)phenyl)(morpholino)methanone] registered a concentration for half-maximal inhibition (IC50) of 12 nM.

For `CC1CN(C(=O)c2cccs2)CC=C1c1c[nH]c2ncc(-c3ccc(CN4CCOCC4)s3)cc12` (centres unmarked) [Example 216, (5-methyl-4-(5-(5-(morpholinomethyl)thiophen-2-yl)-1H-pyrrolo[2,3-b]pyridin-3-yl)-5,6-dihydropyridin-1(2H)-yl)(thiophen-2-yl)methanone], the IC50 was 73 nM.

In turn, `CN(C(=O)N1CC=C(c2c[nH]c3ncc(-c4cccc(S(C)(=O)=O)c4)cc23)CC1)C1CCCC1` [Example 217, N-cyclopentyl-N-methyl-4-(5-(3-(methylsulfonyl)phenyl)-1H-pyrrolo[2,3-b]pyridin-3-yl)-5,6-dihydropyridine-1(2H)-carboxamide] had an IC50 of 360 nM.

As to `CN(C(=O)N1CC=C(c2c[nH]c3ncc(-c4cccc(S(N)(=O)=O)c4)cc23)CC1)C1CCCC1` [Example 218, N-cyclopentyl-N-methyl-4-(5-(3-sulfamoylphenyl)-1H-pyrrolo[2,3-b]pyridin-3-yl)-5,6-dihydropyridine-1(2H)-carboxamide], the IC50 is > 10000 nM.

For `CN(C(=O)N1CC=C(c2c[nH]c3ncc(-c4ccc(S(N)(=O)=O)cc4)cc23)CC1)C1CCCC1` [Example 219, N-cyclopentyl-N-methyl-4-(5-(4-sulfamoylphenyl)-1H-pyrrolo[2,3-b]pyridin-3-yl)-5,6-dihydropyridine-1(2H)-carboxamide], the 50% inhibitory concentration (IC50) was > 10000 nM.
